Reference: EP4574212A1, “HISTONE DEACETYLASE INHIBITORS” (Centre National de la Recherche Scientifique, priority 2023, dated 2025)
Peptide text beside a SMILES is read from it. * marks the point of attachment. X1 = Nc1ccccc1NC(=O)c1ccc(CC(=O)*)cc1

Experiments:
HDAC [1] = assay: Fluorescence-based HDAC inhibition assay in solution using HeLa nuclear extracts
HDAC [2] = assay: as above; assay type: biochemical
[3] = hydroxamic acid-based multivalent HDACi, HeLa nuclear extracts, TosGPK(Ac)-AMC substrate 43 µM, 45 min at 37 °C, average of at least 2 experiments
[4] = benzamide-based multivalent HDACi, procedure of Example 8 (HeLa nuclear extracts, TosGPK(Ac)-AMC substrate)

For `C[C@@H]1NC(=O)[C@H](CCCCNC(=O)CCCCCCC(=O)NO)NC(=O)CNC(=O)[C@@H]2CCCN2C(=O)[C@H](CCCCNC(=O)CCCCCCC(=O)NO)NC(=O)[C@H](C)NC(=O)[C@H](CCCCNC(=O)CCCCCCC(=O)NO)NC(=O)CNC(=O)[C@@H]2CCCN2C(=O)[C@H](CCCCNC(=O)CCCCCCC(=O)NO)NC1=O` [MuH2121, RAFT-(methyl 8-(hydroxyamino)-8-oxooctanoate)4], the EC50 (HDAC [1]; [3]) was 5760 nM.

With “RAFT-(4-(2-((5-X-5-oxopentyl)amino)-2-oxoethyl)-N-(2-aminophenyl)benzamide)4 [MuH2220]” the EC50 (HDAC [1]; [4]) was 1220 ± 700 nM.

`O=C(CCCCCCc1cn(CCCCCCC(=O)NO)nn1)NO` [MuH2321, 7,7'-(1H-1,2,3-Triazole-1,4-diyl)bis(N-hydroxyheptanamide)] was tested, and the EC50 (HDAC [2]; [3]) was 230 ± 160 nM.

With “RAFT-(4-(2-X-2-oxoethyl)-N-(2-aminophenyl)benzamide)4 [MuH2122]” the EC50 (HDAC [1]; [4]) was 1590 ± 870 nM.

In the case of `O=C(CCCCCCC(=O)Nc1ccc(NC(=O)CCCCCCC(=O)NO)cc1)NO` [MuH2323, N^1,N^1'-(1,4-Phenylene)bis(N8-hydroxyoctanediamide)], the EC50 (HDAC [2]; [3]) is reported as 480 ± 320 nM.

In the case of `C[C@@H]1NC(=O)CNC(=O)[C@@H]2CCCN2C(=O)[C@H](CCCCNC(=O)Cc2ccc(C(=O)Nc3ccccc3N)cc2)NC(=O)[C@H](C)NC(=O)[C@H](C)NC(=O)CNC(=O)[C@@H]2CCCN2C(=O)[C@H](CCCCNC(=O)Cc2ccc(C(=O)Nc3ccccc3N)cc2)NC(=O)[C@H](C)NC1=O` [MuH2224, RAFT-(4-(2-X-2-oxoethyl)-N-(2-aminophenyl)benzamide)2] (cyclo(AAK(X1)PGAAK(X1)PG)), the EC50 (HDAC [1]; [4]) is reported as 7810 ± 5270 nM.

Work on “RAFT-(N-(2-aminophenyl)-4-(2-(((1-X-1H-1,2,3-triazol-4-yl)methyl)amino)-2-oxoethyl) benzamide)4 [MuH2222]” yielded an EC50 (HDAC [1]; [4]) of 1760 ± 890 nM.

`Nc1ccccc1NC(=O)CCCCCCC(=O)Nc1cccc(NC(=O)CCCCCCC(=O)Nc2ccccc2N)c1` [MuH2345, N^1,N^1'-(1,3-Phenylene)bis(N8-(2-aminophenyl)octanediamide)] showed an EC50 (HDAC [2]; [4]) of 31500 ± 29900 nM.

Molecule `O=C(CCCCCCC(=O)Nc1ccccc1NC(=O)CCCCCCC(=O)NO)NO` [MuH2322, N^1,N^1'-(1,2-Phenylene)bis(N^8-hydroxyoctanediamide)] has an EC50 (HDAC [2]; [3]) of 520 ± 110 nM.

In the case of “RAFT-(4-pentyn-1-ol)4 [MuH2123, reference compound]”, the “EC50 (µM)” value (HDAC [1]; [3]) is reported as “Inact”.

For `Nc1ccccc1NC(=O)c1ccc(CC(=O)NCCCNC(=O)Cc2ccc(C(=O)Nc3ccccc3N)cc2)cc1` [MuH2320, 4,4'-((Propane-1,3-diylbis(azanediyl))bis(2-oxoethane-2,1-diyl))bis(N-(2-aminophenyl)benzamide)], the EC50 (HDAC [2]; [4]) was 9210 ± 2550 nM.

With `C[C@@H]1NC(=O)[C@H](CCCCNC(=O)CCCCCCC(=O)NO)NC(=O)CNC(=O)[C@@H]2CCCN2C(=O)[C@H](CCCCNC(=O)CCCCCCC(=O)NO)NC(=O)[C@H](C)NC(=O)[C@H](CCCCNC(=O)CCCCCCC(=O)NO)NC(=O)CNC(=O)[C@@H]2CCCN2C(=O)[C@H](CCCCNC(=O)CCCCCCC(=O)NO)NC1=O` [MuH2120, RAFT-(methyl 8-(hydroxyamino)-8-oxooctanoate)4] the EC50 (HDAC [1]; [3]) was 2840 nM.

Molecule “RAFT-(N^1-(4-(2-amino-2-oxoethyl)phenyl)-N^8-hydroxyoctane diamide))2 [MuH2357]” has an EC50 (HDAC [1]; [3]) of 230 ± 70 nM.

`Nc1ccccc1NC(=O)c1ccc(CNC(=O)OCc2cccnc2)cc1` [MS275, reference compound] was tested, and the EC50 (HDAC [2]; [4]) was 7230 ± 2070 nM.

With `O=C(CCCCCCC(=O)Nc1cccc(NC(=O)CCCCCCC(=O)NO)c1)NO` [MuH2324, N^1,N^1'-(1,3-Phenylene)bis(N8-hydroxyoctanediamide)] the “increase in activity compare to the SAHA” value (HDAC [2]; HDAC inhibition, versus monovalent inhibitor SAHA) was 14 fold and the EC50 (HDAC [2]; [3]) was 60 ± 10 nM.

`O=C(CCCCCCC(=O)Nc1cc(NC(=O)CCCCCCC(=O)NO)c(NC(=O)CCCCCCC(=O)NO)cc1NC(=O)CCCCCCC(=O)NO)NO` [MuH2344, N1,N1',N1",N1‴-(Benzene-1,2,4,5-tetrayl)tetrakis(N8-hydroxyoctanediamide)] was tested, and the EC50 (HDAC [2]; [3]) was 2250 ± 650 nM.
